{
  "source": "patent EP4653001A1",
  "about": "“TREATMENT, DIAGNOSIS AND/OR PROGNOSIS OF MITOCHONDRIAL DISEASES” (Universidad Autónoma de Madrid, priority 2024, dated 2025)",
  "key": {"143B cells": {"system": "143B cells", "assay": "Metabolomics of intracellular metabolites in 143B cells", "format": "cell-based", "details": "48 h", "protocol": "1-5.0×10^6 cells were harvested on dry ice with 1 mL pre-chilled 80% HPLC-grade methanol (Fluka Analytical). The cell mixture was incubated for 15 min on dry ice prior to centrifugation at 18,000 × g for 10 min at 4°C. The supernatant was retained, and the remaining cell pellet was resuspended in 800 µL chilled 80% methanol and centrifuged. Supernatant was combined with the previous retention and was lyophilized using a SpeedVac (Thermo Fisher). Lyophilized samples were resuspended in 20 µL ultrapure water and subjected to metabolomics profiling using the AB/SCIEX 5500 QTRAP triple quadrupole instrument. Data analysis was performed using the GiTools software. 13C-labeled glutamine and glucose was acquired in SIGMA (605166 and 389374).\nNext, we conducted time-course experiments to gain further knowledge on the metabolic determinants underlying the observed synthetic lethality between PPP and OXPHOS. 143B cells were treated either with Piericidin or G6PDi (selective inhibitor of G6PD) alone or the combination of both and cell proliferation was quantified over the course of 96 h. […] Conversely, dual inhibition produced a marked reduction in cell survival beyond 48 h of treatment that was even more accentuated at 96 h (Figure 2A). […]"}, "primary neurons": {"system": "primary neurons", "assay": "Neuron axon morphology (immunofluorescence)", "format": "cell-based, mouse", "details": "CI inhibition, 100 nM 24 h, extensive axon degeneration", "protocol": "(§1) Primary cultures of C57BL/6 mouse cortical neurons were prepared from embryos between embryonic days 16.5 and 17.5 and seeded onto pre-treated plates coated with Poly-L-lysine hydrobromide (500 µg/ml). We used Neurobasal medium without D-glucose and sodium pyruvate (ThermoFisher) to modulate D-glucose levels, depending on the experiment (2.5 mM, 5 mM, or 25 mM).\nNeuron axon morphology was quantified in primary neurons exposed to DMSO or 100 nM piericidin for 24 h. Neurons were fixed with 4% paraformaldehyde for 10 min, blocked, and permeabilized in 0.1% Triton X-100 (Tx)-PBS with 10% fetal bovine serum for 15 minutes at room temperature. Then, neurons were incubated with the primary BIII-Tubulin antibody (1:500, ab78078, Abcam) in 0.1% Tx/10% FBS-PBS overnight at 4°C. Subsequently, wells were rinsed several times in PBS before applying the fluorochrome-conjugated secondary antibody (ThermoScientific) in 0.1% Tx/10% FBS-PBS for 1h at room temperature. Neurons were finally washed in PBS, and DAPI was added prior to the microscopic analysis. Acquired confocal images were quantified by measuring the BIII-Tubulin fluorescent integrated density and normalized by the number of DAPI-positive nuclei."}, "cortical neurons": {"system": "cortical neurons", "assay": "ATP measurement in live neurons (FRET ATP biosensor)", "format": "cell-based, rats", "details": "soma or axons, 100 nM, 24 h", "protocol": "ATP measurements was performed in primary co-cultures of cortical neurons and astrocytes from P1-2 wild-type rats of the Sprague-Dawley strain Crl:CD(SD), which are bred by Charles River Laboratories following the international genetic standard protocol (IGS). All experiments were carried out in strict accordance with the guidelines of the European Directive 2010/63/EU and the French Decree n° 2013- 118 concerning the protection of animals used for scientific purposes. Neurons were plate on poly- ornithine (Sigma-Aldrich, P3655) coated coverslips and maintained in culture media composed by MEM (Thermo Fisher Scientific, 51200-046), 20 mM Glucose (Sigma-Aldrich, G8270), 0.1 mg/mL transferrin (Sigma-Aldrich, 616420), 1% Glutamax (Thermo Fisher Scientific, 35050-038), 24 µg/mL insulin (Sigma-Aldrich, I6634), 5% FBS (Thermo Fisher Scientific, 10082-147), 2% N-21 (Bio-techne, AR008) and 4µM cytosine β-d-arabinofuranoside (Sigma-Aldrich, C6645). Cultures were incubated at 37°C in 95% air / 5% CO 2 humidified incubator.\nNeurons were transfected at DIV 8 with ATeam1.03-nD/nA/pcDNA3 (gift from Takeharu Nagai (Addgene plasmid # 51958; http://n2t.net/addgene:51958; RRID:Addgene_51958)) and imaged at DIV 19. […] Fluorescence emission from ATeam was imaged using a FS 78 HE Dual camera; the exposure times were 250 ms for CFP and YFP images. […]"}, "mouse cortical neurons": {"system": "mouse cortical neurons", "assay": "NADPH/NADP+ levels in neurons (NADP/NADPH-Glo)", "format": "cell-based", "details": "CI-inhibited neurons", "protocol": "as §1\nIn standard experiments, we utilized Neurobasal medium with 25 mM D-glucose, 1 mM sodium pyruvate (ThermoFisher), B27 plus supplement (GIBCO), GlutaMax I 100X (GIBCO), and 1% penicillin/streptomycin (P/S). Starting from day 6 in vitro (DIV6), half of the medium was replaced every 3-4 days, omitting GlutaMax I.\nThe NADP/NADP-Glo™ Assay (Promega) was employed to assess the NADP/NADPH ratio in cultured cells, following the manufacturer's instructions (Technical Bulletin Number TM400). This bioluminescent assay can detect both total oxidized and reduced nicotinamide adenine dinucleotide phosphates (NADP+ and NADPH) and determine their ratio.\nCells were cultured in 24-well plates (Falcon®) at varying concentrations depending on the cell type and the specific experiment. After removing the media, we added 100 µl of PBS 1X per well and lysed the cells by introducing 100 µl of a base solution with 1% DTAB (1:1 ratio). […] Luminescence was measured using the CLARIOstar Plus plate reader from BMG LABTECH."}},
  "data": [
    {"smiles": "CC=C(C)C(O)C(C)C=C(C)C=CCC(C)=CCc1nc(OC)c(OC)c(O)c1C", "note": "(stereo not drawn) [Piericidin, Piericidin A]", "values": [
      {"measurement": "NADH", "setting": "143B cells", "value": "accumulation"},
      {"measurement": "intracellular levels of NADPH", "setting": "143B cells", "value": "did not exert significant changes"},
      {"measurement": "neuron morphology", "setting": "primary neurons", "value": "significant morphological alterations"},
      {"measurement": "ATP (genetically encoded biosensor)", "setting": "cortical neurons", "value": "did not altered"},
      {"measurement": "NADPH levels", "setting": "mouse cortical neurons; 100 nM, 24 h", "value": "marked drop"},
      {"measurement": "NADPH/NADP+ levels", "setting": "mouse cortical neurons; low glucose (2,5 mM)", "value": "rapid decline"}
    ]}
  ]
}
